In patent US6784201B2, “Benzothiepines having activity as inhibitors of ileal bile acid transport and taurocholate uptake” (G.D. Searle & Company, priority 1994, dated 2004):
Where two headings read alike, the source gives them in different places.

Legend:
[1] = test system: Rabbit Ileal brush border membranes; assay: [3H]taurocholate uptake in rabbit brush border membrane vesicles (BBMV); assay type: biochemical; details: read-out: TC-uptake (BBMV) IC(50)
Method: [^3H]Taurocholate Uptake in Rabbit Brush Border Membrane Vesicles (BBMV)
Rabbit Ileal brush border membranes were prepared from frozen iheal mucosa by the calcium precipitation method describe by Malathi et al. (Reference: (1979) Biochimica Biophysica Acta, 554, 259). The method for measuring taurocholate was essentially as described by Kramer et al. (Reference: (1992) Biochimica Biophysica Acta, 1111, 93) except the assay volume was 200 μl instead of 100 μl.

ACAT = assay: Acyl-CoA; cholesterol acyl transferase (ACAT), hamster liver microsomes; assay type: biochemical; details: read-out: ACAT (liver) IC(50)
Method: Acyl-CoA; Cholesterol Acyl Transferase (ACAT)
Hamster liver and rat intestinal microsomes were prepared from tissue as described previously (Reference: (1980) J. Biol. Chem. 255, 9098) and used as a source of ACAT enzyme. The assay consisted of a 2.0 ml incubation containing 24 μM Oleoyl-CoA (0.05 μCi) in a 50 mM sodium phosphate, 2 mM DTT ph 7.4 buffer containing 0.25% BSA and 200 μg of microsomal protein. The assay was initiated by the addition of oleoyl-CoA. The reaction went for 5 min at 37° C. and was terminated by the addition of 8.0 ml of chloroform/methanol (2:1). […] The chloroform phase was taken to dryness and then spotted on a silica gel 60 TLC plate and developed in hexane/ethyl ether (9:1). The amount of cholesterol ester formed was determined by measuring the amount of radioactivity incorporated into the cholesterol oleate spot on the TLC plate with a Packard instaimager.

H14 cells = assay: In vitro assay of uptake of [14C]-alanine; assay type: cell-based, hamster; details: Mesocricetus auratus
Method: Baby hamster kidney cells (BHK) transfected with the cDNA of human IBAT (H14 cells) are seeded at 60,000 cells/well in 96 well Top-Count tissue culture plates for assays run within in 24 hours of seeding, 30,000 cells/well for assays run within 48 hours, and 10,000 cells/well for assays run within 72 hours.
On the day of assay, the cell monolayer is gently washed once with 100 μl assay buffer (Dulbecco's Modified Eagle's medium with 4.5 g/L glucose+0.2% (w/v) fatty acid free bovine serum albumin-(FAF)BSA). To each well 50 μl of a two-fold concentrate of test compound in assay buffer is added along with 50 μl of 6 μM [^14C]-taurocholate in assay buffer (final concentration of 3 μM [^14C]-taurocholate). The cell culture plates are incubated 2 hours at 37° C. prior to gently washing each well twice with 100 μl 4° C. Dulbecco's phosphate-buffered saline (PBS) containing 0.2% (w/v) (FAF)BSA. The wells are then gently washed once with 100 μl 4° C. PBS without (FAF)BSA. To each 200 μl of liquid scintillation counting fluid is added, the plates are heat sealed and shaken for 30 minutes at room temperature prior to measuring the amount of radioactivity in each well on a Packard Top-Count instrument.
In Vitro Assay of Compounds that Inhibit Uptake of [^14C3-Alanine
The alanine uptake assay is performed in an identical fashion to the taurocholate assay, with the exception that labeled alanine is substituted for the labeled taurocholate.

[2] = test system: Rat Ileal Uptake of [14C]-Taurocholate; assay: In vivo assay of rat ileal uptake of [14C]-taurocholate into bile (ileal loop); details: for activity at 100 µM: Rattus norvegicus, read-out: % of Control Transport of TC in Rat Ileum @ 0.1 mM; for EC50: rat ileal loop, read-out: TC-uptake Ileal Loop EC(50)
Method: In Vivo Assay of Compounds that Inhibit Rat Ileal Uptake of [^14C]-Taurocholate into Bile
(See “Metabolism of 3α,7β-dihydroxy-7α-methyl-5β-cholanoic acid and 3α,7β-dihydroxy-7α-methyl-5β-cholanoic acid in hamsters” in Biochimica et Biophysica Acta 833 (1985) 196-202 by Une et al.)
Male wistar rats (200-300 g) are anesthetized with inactin @100 mg/kg. Bile ducts are cannulated with a 10″ length of PE10 tubing. The small intestine is exposed and laid out on a gauze pad. A canulae (⅛″ luer lock, tapered female adapter) is inserted at 12 cm from the junction of the small intestine and the cecum. A slit is cut at 4 cm from this same junction (utilizing a 8 cm length of ileum). 20 ml of warm Dulbecco's phosphate buffered saline, pH 6.5 (PBS) is used to flush out the intestine segment. The distal opening is cannulated with a 20 cm length of silicone tubing (0.02″ I.D.×0.037″ O.D.). The proximal cannulae is hooked up to a peristaltic pump and the intestine is washed for 20 min with warm PBS at 0.25 ml/min. Temperature of the gut segment is monitored continuously. At the start of the experiment, 2.0 ml of control sample ([^14C]-taurocholate @ 0.05 mi/ml with 5 mM cold taurocholate) is loaded into the gut segment with a 3 ml syringe and bile sample collection is begun. Control sample is infused at a rate of 0.25 ml/min for 21 min. Bile samples fractions are collected every 3 minute for the first 27 minutes of the procedure. After the 21 min of sample infusion, the ileal loop is washed out with 20 ml of warm PBS (using a 30 ml syringe), and then the loop is washed out for 21 min with warm PBS at 0.25 ml/min. A second perfusion is initiated as described above but this with test compound being administered as well (21 min administration followed by 21 min of wash out) and bile sampled every 3 min for the first 27 min. If necessary, a third perfusion is performed as above that typically contains the control sample.

human IBAT = target: T1, human IBAT (Homo sapiens, UniProt Q12908); assay: In vitro assay of IBAT-mediated uptake of [14C]-taurocholate (TC) in H14 cells; assay type: cell-based
T1 construct: expressed in transfected cells; host or cells: Baby hamster kidney (BHK) cells, clone H14
T1 sequence (Q12908 1-348): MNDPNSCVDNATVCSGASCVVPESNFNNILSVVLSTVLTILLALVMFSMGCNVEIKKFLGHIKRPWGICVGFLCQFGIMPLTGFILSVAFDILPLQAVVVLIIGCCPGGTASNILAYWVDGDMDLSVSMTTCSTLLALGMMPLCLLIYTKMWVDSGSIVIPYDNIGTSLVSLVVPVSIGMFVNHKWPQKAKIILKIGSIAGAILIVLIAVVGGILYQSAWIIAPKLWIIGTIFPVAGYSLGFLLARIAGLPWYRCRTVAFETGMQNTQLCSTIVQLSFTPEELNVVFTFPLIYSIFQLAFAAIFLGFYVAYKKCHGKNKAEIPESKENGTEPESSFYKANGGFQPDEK
Method in brief: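 BHK cells stably expressing human IBAT (H14) were incubated 2 h at 37° C with compound and 3 μM final [14C]-taurocholate in DMEM (4.5 g/L glucose) plus 0.2% fatty acid-free BSA. After cold PBS washes, cell-associated radioactivity was measured by scintillation counting.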

[3] = H14 cells, Table 5, read-out: IC50 uM (In vitro Taurocholate Cell Uptake)
[4] = Table 6, read-out: TC-uptake (H14 cells) IC(50)

Row | SMILES | IC50 [1] [nM] | IC50 (ACAT) [nM] | inhibition at 5 µM (H14 cells; 5 μM) [%] | activity at 100 µM [2] [%] | EC50 [2] [nM] | IC50 (human IBAT; [3]) [µM] | IC50 (human IBAT; [4]) [µM] | inhibition at 200 µM (H14 cells; 200 μM) [%]
1 | CCCC[C@]1(CC)CS(=O)(=O)c2ccc(NO)cc2[C@@H](c2ccccc2)[C@H]1O [Example 38, (3α,4β,5β) 3-Butyl-3-ethyl-4-hydroxy-7-hydroxyamino-5-phenyl-2,3,4,5-tetrahydrobenzothiepine-1,1-dioxide] | 2000 | 15000 | 11 | 20.6 | 12000 | 0.3 | 0.3 | –
2 | CCCC[C@]1(CC)CS(=O)(=O)c2ccc(OC)cc2[C@@H](c2ccccc2)[C@H]1O [Example 49, (3α,4β,5β) 3-Butyl-3-ethyl-4-hydroxy-7-methoxy-5-phenyl-2,3,4,5-tetrahydrobenzothiepine-1,1-dioxide] | – | 6000 | – | 21.2 | 12000 | 0.15 | 0.1 | 21
